In patent US7273888B2, “Use of difluoromethylornithine (DFMO) for the treatment of amyotrophic lateral sclerosis” (ALS Therapy Development Foundation, Inc., priority 2001, dated 2007):

Assays:
SOD1 G93A mice [1] = experiment: Neurological score analysis in SOD1 G93A (high copy) mouse model of ALS; type: in vivo
From the text: Survival in the mouse is copy dependent.
Controls animals were given water as vehicle.

SOD1 G93A mice [2] = experiment: Survival analysis (Kaplan-Meier) in SOD1 G93A (high copy) mouse model of ALS
From the text: (i) Model Description: The SOD1 G93A (high copy) mouse model was used as the model for ALS. This mouse model carries 25 copies of the human G93A SOD mutation and is driven by the endogenous promoter.
(ii) Murine FALS model: Heterozygous transgenic mice carrying the human SOD-1 (G93A) gene were obtained from Jackson Laboratory (Bar Harbor, Me., USA).
(iv) Methods: Forty (n=40) SOD1 G93A high copy mice obtained from Jackson Laboratory (Bar Harbor, Me.) were separated into two groups of twenty (n=20) with an equal number of males (n=10) and females (n=10) in each group. The groups were also litter matched to reduce group variation. Male animals were singly housed and females were group housed to conserve space. […] When animals had difficulty in moving and taking care of themselves chow and water were replaced with food pellets in bedding and Jell-O for water. (v) Pharmacological Agent Delivery: All pharmacological agents were administered to SOD1 G93A mice.
Controls animals were given water as vehicle. All treatments are performed 7 days per week and treatment was initiated at day 60 of life. […] When a neurological score of 2 is attained, the animals are no longer capable of drinking themselves due to paralysis. […] Controls were given water as vehicle until a neurological score of 2 at which point they were injected with saline as vehicle.
• 0=Normal reflex on the hind limbs (animal will splay its hind limbs when lifted by its tail). • 1=Abnormal reflex of hind limbs (lack of splaying of hind limbs when animal is lifted by the tail). • 2=Abnormal reflex of limbs and evidence of paralysis. • 3=Lack of reflex and complete paralysis. • 4=Inability to right themselves when placed on the sides in 30 seconds or found dead. The animals are sacrificed at this stage if alive.

[3] = system: patients with advanced non-small cell lung cancer; conditions: Phase I, advanced non-small cell lung cancer (Hahm et al. 2002); cited from earlier work
SOD1 G93A mice [4] = conditions: mouse, in vivo, ip, 250 mg/kg/day
[5] = discontinuous dosing 3200 mg/Kg/day in drinking water, 21 days on / 7 days off
[6] = female mice, IP 24 mg/kg/day twice daily till death, FIG. 12

NCCCC(N)(C(=O)O)C(F)F (racemic) [DFMO, 2-(Difuoromethyl)-DL-ornithine]
effect on neurological score (SOD1 G93A mice [1]; combined male and female, continuous dosing 3200 mg/Kg/day, FIGS. 5): protective | effect on neurological score (SOD1 G93A mice [1]; female mice, discontinuous dosing 3200 mg/Kg/day, during the drug delivery period): protective | effect on neurological score (SOD1 G93A mice [1]; female, continuous dosing 3200 mg/Kg/day, FIG. 9): protective | effect on neurological score (SOD1 G93A mice [1]; male, continuous dosing 3200 mg/Kg/day, FIG. 7): protective | onset of disease (SOD1 G93A mice [2]; continuous dosing 3200 mg/Kg/day in drinking water, no drug holiday): delays the onset of disease | life span (SOD1 G93A mice [2]; continuous dosing 3200 mg/Kg/day in drinking water, no drug holiday, combined, male and female, FIGS. 4, 6 and 8): extended the life span | onset of disease (SOD1 G93A mice [2]; [5]): delays the onset of disease | survival (SOD1 G93A mice [2]; [5]): extends the survival | deaths of animals in the treatment group during the drug holiday or a few days immediately succeeding it (SOD1 G93A mice [2]; females, discontinuous dosing 3200 mg/Kg/day in drinking water, 21 days then 7 day drug holiday, FIG. 2): 70% | trend in male mice (SOD1 G93A mice [2]; ongoing IP injection study, 3200 mg/kg, male mice): positive male trend

CCNCCCNCCCNCCCNCC [DENSPM, N(1),N(11)-diethylnorspermine]
toxicity in patients [3]: minimal toxicity | effect on neurological score (SOD1 G93A mice [1]; female mice, IP 24 mg/kg/day twice daily till death, FIG. 13): protective | onset of disease (SOD1 G93A mice [2]; [6]): delays the onset of disease | survival (SOD1 G93A mice [2]; [6]): extends the survival

NC(=O)NO [hydroxyurea]
toxicity leading to stop of treatment (SOD1 G93A mice [4]): discontinued after day 110 due to toxicity | effect on neurological score (SOD1 G93A mice [1]; female mice, IP 250 mg/Kg/day once daily, day 50 until day 110, FIG. 11): protective | onset of ALS disease (SOD1 G93A mice [2]; IP 250 mg/Kg/day once daily, day 50 until day 110): delays the onset of ALS disease | life span (SOD1 G93A mice [2]; female mice, IP 250 mg/Kg/day once daily, day 50 until day 110, FIG. 10): extended the life span
